Measured values as given in patent US20190276481A1, “Liver Prodrugs of Mitochondrial Proton Ionophores” (NEUROVIVE PHARMACEUTICAL AB, priority 2016, published 2019).

Experiments:
[1] = tested on: isolated rat liver mitochondria; test: Uncoupling potential in isolated mitochondria (free mitochondrial uncoupling, oxygraph respiration); type: biochemical; conditions: fixed concentrations, vs DMSO control, FIGS. 1, 2, 4-6
Procedure: The potency of mitochondrial uncoupling without prodrug metabolism may be tested as follows:
Isolated rat liver mitochondria are prepared according to Hansson et al (Hansson et al (Brain Res. 2003 Jan. 17; 960(1-2):99-111.). Respiration is measured at a constant temperature of 37° C. in a high-resolution oxygraph (Oxygraph-2k Oroboros Instruments, Innsbruck, Austria) in 2 ml glass chambers with stirrer speed 750 rpm. Data is recorded with DatLab software (Oroboros Instruments, Innsbruck, Austria) with sampling rate set to 2 s at an oxygen concentration in the range of 210-50 μM O2. If necessary, reoxygenation is performed by partially raising the chamber stopper for a brief air equilibration. Instrumental background oxygen flux is measured in a separate set of experiments and automatically corrected for in the ensuing experiments according to the manufacturer's instructions. To measure respiration of isolated mitochondria, samples are suspended in a mitochondrial respiration medium (MiR05) containing sucrose 110 mM, HEPES 20 mM, taurine 20 mM, K-lactobionate 60 mM, MgCl2 3 mM, KH2PO4 10 mM, EGTA 0.5 mM, BSA 1 g/l, pH 7.1. After reaching stabilized respiration in the presence of substrates (malate (5 mM), glutamate (5 mM), pyruvate (5 mM) and succinate (10 mM)), state 3 respiration is induced by supplementation with ADP (1 mM) followed by addition of oligomycin (1 μg/ml, ATP-synthase inhibitor) causing state 4O. State 4O is a respiratory state dependent on the back-flux of protons across the mitochondrial membrane due to inhibition of the ATP-synthase and in the presence of saturating substrate concentrations and ADP. Drug candidates and their respective payloads of known protonophores are given at fixed concentrations to induce uncoupled respiration. Rotenone (2 μM, complex I [CI] inhibitor), antimycin-A (1 μg/ml, complex III [CIII] inhibitor) and sodium azide (10 mM) are then added to inhibit the ETS providing the residual, non-mitochondrial oxygen consumption which all respiratory values are corrected for.

[2] = tested on: HepG2 cells (hepatic) vs platelets (extra-hepatic); test: In vitro uncoupling in HepG2 cells (hepatic) vs platelets (extra-hepatic); type: cell-based; conditions: high maximal uncoupling at low concentrations in HepG2 cells; FIGS. 7-12
Procedure: (§1) For respiration measurements in HepG2 cells and platelets, cells are suspended in a mitochondrial respiration medium MiR05 at 37° C. in a high-resolution oxygraph (Oxygraph-2k Oroboros Instruments, Innsbruck, Austria). […] To evaluate the contribution of respiration independent of ADP phosphorylation, oligomycin (1 μg/ml, ATP-synthase inhibitor) is sequentially added inducing LEAK respiration state (a respiratory state where oxygen consumption is dependent on the back-flux of protons across the mitochondrial membrane). Drug candidates and known protonophores are carefully titrated to induce maximal uncoupled respiration/maximal rate of the ETS (electron transport system) at endogenous substrate supply and continued until a decrease or at least no further increase of uncoupled respiration is observed. Rotenone (2 μM, complex I [CI] inhibitor) and antimycin-A (1 μg/ml, complex III [CIII] inhibitor) are then added to inhibit the ETS, thus providing the residual, non-mitochondrial oxygen consumption, which all values were corrected for.
(§2) The potency of mitochondrial uncoupling with prodrug metabolism be tested as follows: • a) HepG2 cells (to simulate uncoupling with liver cell metabolism) • b) Platelets (to simulate uncoupling in blood)
It is advantageous to have an increased level of uncoupling in hepatic tissue as compared to extra-hepatic tissue. To test for this, compounds were tested in an in vitro uncoupling assay (see Assays for evaluating mitochondrial uncoupling in intact liver cells and platelets in general methods) in HepG2 cells (hepatic) vs platelets (extra-hepatic).

[3] = Hsaio et al., 2005; cited from earlier work
[4] = Caco-2 permeability assay; type: in vitro ADME; conditions: human
Procedure: (§3) The permeability coefficient (Papp) is calculated from the following equation:
(§4) Where dQ/dt is the amount of compound in basal (A-B) or apical (B-A) compartment as a function of time (nmol/s). C0 is the initial concentration in the donor (apical or basal) compartment (Mean of T=0) (nmol/mL) and A is the area of the transwell (cm^2).
(§5) The efflux ratio is then calculated as: […]
(§6) Cell permeability may be tested as follows: The test compound is dissolved to 10 mM in DMSO and then diluted further in buffer to produce a final 10 μM dosing concentration. The fluorescence marker lucifer yellow is also included to monitor membrane integrity. Test compound is then applied to the apical (A) surface of Caco-2 cell monolayers and compound permeation into the basolateral (B) compartment is measured. This is performed in the reverse direction (basolateral to apical) to investigate active transport (efflux). LC-MS/MS is used to quantify levels of both the test and standard control compounds (such as Propanolol and Acebutolol).

[5] = Relative liver exposure vs extra-hepatic organs: salicylanilide levels after oral dosing; type: in vivo; conditions: CD-1 mice
Procedure: For example, mice or rats are dosed with 1 or 3 mg/kg of the compound of the invention i.v. or 1, 5 or 10 mg/kg of the compound of the invention p.o. Blood samples are taken at 5 min, 15 min, 1 h, 4 h and 24 h intervals, and the concentration of the compound of the invention in the sample is determined via LCMS-MS. The time-course of plasma or whole blood concentrations can then be used to derive key parameters such as the area under the plasma or blood concentration-time curve (AUC—which is directly proportional to the total amount of unchanged drug that reaches the systemic circulation), the maximum (peak) plasma or blood drug concentration, the time at which maximum plasma or blood drug concentration occurs (peak time), additional factors which are used in the accurate determination of bioavailability include: the compound's terminal half-life, total body clearance, steady-state volume of distribution and F %.
As it is advantageous to have an increased ratio of liver uncoupling versus extra hepatic uncoupling, 3 mg/kg salicylanilide or 10 mg/kg compound 14 or 10 mg/kg compound 23 (which releases salicylanilide) were dosed orally to CD-1 mice and levels of salicylanilide were measured in blood, muscle and liver samples before and after dosing (see general methods). The ratio of liver vs extra-hepatic salicylanilide was then assessed, with a high ratio desirable, as this is anticipated to lead to reduced off-target uncoupling and toxicity.

HepG2 cells = test: Mitochondrial uncoupling assay in intact HepG2 liver cells; type: cell-based; conditions: FIG. 3
Procedure: as §1, §2

Caco-2 cell monolayers = test: Caco-2 permeability assay; type: in vitro ADME
Procedure: as §3, §4, §5, §6

Structure (SMILES)	uncoupling in isolated mitochondria (without prodrug metabolism) [1]	selectivity of uncoupling, HepG2 cells vs platelets [2]	other results
CC(C)OC(=O)[C@H](Cc1ccccc1)NP(=O)(N[C@@H](Cc1ccccc1)C(=O)OC(C)C)OCOc1ccc([N+](=O)[O-])cc1[N+](=O)[O-] [Compound 11]	reduced, little or no uncoupling	selective uncoupling in HepG2 cells as compared to platelets	
CC(C)OC(=O)[C@H](C)NP(=O)(N[C@@H](C)C(=O)OC(C)C)OCOc1ccc([N+](=O)[O-])cc1[N+](=O)[O-] [Compound 2]	reduced, little or no uncoupling		
O=[N+]([O-])c1ccc(O)c([N+](=O)[O-])c1 [DNP, 2,4 dinitrophenol]	potent uncoupling		acute administration that can be lethal [3]: 20-50 mg/kg body weight; efflux ratio at 10 µM [4]: 1.1; Papp A→B at 10 μM ([4]; apical to basolateral): 24 ×10⁻⁶ cm/s; Papp B→A at 10 μM ([4]; basolateral to apical): 27 ×10⁻⁶ cm/s
CC(C)OC(=O)[C@H](C)NP(=O)(N[C@@H](C)C(=O)OC(C)C)OCOc1ccc(Cl)cc1C(=O)Nc1ccc([N+](=O)[O-])cc1Cl [Compound 6]	reduced, little or no uncoupling	selective uncoupling in HepG2 cells as compared to platelets	
C[C@H](NP(=O)(N[C@@H](C)C(=O)OCC(C)(C)C)OCOc1ccc([N+](=O)[O-])cc1)C(=O)OCC(C)(C)C [Compound 9]	reduced, little or no uncoupling	selective uncoupling in HepG2 cells as compared to platelets	
CC(C)OC(=O)[C@H](C)NP(=O)(N[C@@H](C)C(=O)OC(C)C)OCOc1ccc([N+](=O)[O-])cc1 [Compound 4]	reduced, little or no uncoupling		
CC(C)OC(=O)[C@H](Cc1ccccc1)NP(=O)(N[C@@H](Cc1ccccc1)C(=O)OC(C)C)OCOc1ccccc1C(=O)Nc1ccccc1 [Compound 14]	reduced, little or no uncoupling	selective uncoupling in HepG2 cells as compared to platelets	ratio of liver to extra-hepatic exposure (in words) [5]: desirable ratios of liver to extra-hepatic exposure; Salicylanilide in blood after 1 h ([5]; 3 mg/kg salicylanilide or 10 mg/kg compound 14 or 23): BQL
COP(=O)(N[C@@H](C)C(=O)OC(C)C)OCOc1ccc(Cl)cc1C(=O)Nc1ccc([N+](=O)[O-])cc1Cl (stereo partly shown) [Compound 18]	reduced, little or no uncoupling	selective uncoupling in HepG2 cells as compared to platelets	
O=C(Nc1ccccc1)c1ccccc1O [Salicylanilide, 2-Hydroxy-N-phenylbenzamide]			ratio of liver to extra-hepatic exposure (in words) [5]: desirable ratios of liver to extra-hepatic exposure; maximal uncoupling effect compared to DNP (HepG2 cells): lesser maximal uncoupling effect; uncoupling potency compared to DNP (HepG2 cells): more potent compared to DNP; efflux ratio [4]: 0.8; Papp A→B ([4]; apical to basolateral): 39.5 ×10⁻⁶ cm/s; Papp B→A ([4]; basolateral to apical): 33 ×10⁻⁶ cm/s; Caco-2 efflux ratio compared to DNP (in words) (Caco-2 cell monolayers): reduced efflux ratio; Caco-2 permeability compared to DNP (in words) (Caco-2 cell monolayers): increased permeability
C[C@H](NP(=O)(N[C@@H](C)C(=O)OCC(C)(C)C)OCOc1ccccc1C(=O)Nc1ccccc1)C(=O)OCC(C)(C)C [Compound 23]	reduced, little or no uncoupling	selective uncoupling in HepG2 cells as compared to platelets	ratio of liver to extra-hepatic exposure (in words) [5]: desirable ratios of liver to extra-hepatic exposure
COP(=O)(N[C@@H](C)C(=O)OC(C)C)OCOc1ccc([N+](=O)[O-])cc1[N+](=O)[O-] (stereo partly shown) [Compound 1]	reduced, little or no uncoupling		
